# Tests used:
# [1] = system: APAP-induced acute liver failure (ALF) model; experiment: APAP-induced acute liver failure (ALF) model, sublethal (300 mg/kg APAP i.p.); assay type: in vivo, C57Bl/6 male mice; conditions: for ALT levels reduced relative to untreated control animals: +5 h after APAP (300 mg/kg), ALT at 22 hours
# Description: Compound 3b was studied in a sublethal model for acetaminophen (APAP)-induced Liver Injury.
# ALF was induced in C57Bl/6 male mice with a single dose of acetaminophen (300 mg/kg) by i.p. injection. […] Serum alanine aminotransferase (ALT) was measured 22 h after APAP injection (n=5 mice for each group). […] ALF was induced in C57Bl/6 male mice with a single dose of acetaminophen (300 mg/kg) by i.p. injection. […] Twenty-two hours after APAP injection serum ALT was measured (indicated in FIG. 11A), centrilobular sections of mouse livers were cut and stained with hematoxylin and eosin, and the percentage of liver necrosis was determined. The data indicates a dose-dependent reduction of ALT levels of 9% to 83% relative to APAP control, and a dose-dependent reduction of necrosis of 0% to 56% relative to APAP control.
# ALF was induced in C57Bl/6 male mice with a single dose of acetaminophen (300 mg/kg) by i.p. injection. […] Alanine aminotransferase (ALT) was measured 22 h after APAP injection (n=4 or n=5 mice for each group).
# ALF was induced in C57Bl/6 male mice with a single dose of acetaminophen (300 mg/kg) by i.p. injection. […] Twenty-two hours after APAP injection, serum ALT was measured (indicated in FIGS. 12A-12B), centrilobular sections of mouse livers were cut and stained with hematoxylin and eosin, and the percentage of liver necrosis was determined.
# ALF was induced in C57Bl/6 male mice with a single dose of acetaminophen (300 mg/kg) by i.p. injection.
# FIG. 14 depicts the effect of late treatment with Compound 3b on serum ALT in ALF model. ALF was induced in C57Bl/6 male mice with a single dose of acetaminophen (300 mg/kg) by i.p. injection. At sixteen hours after APAP injection, the animals were treated with different doses of Compound 3b (0.3, 3, 30 or 60 mg/kg). Alanine aminotransferase (ALT) was measured 22 h after APAP injection (n=4 or n=5 mice for each group).
# ALF was induced in C57Bl/6 male mice with a single dose of acetaminophen (300 mg/kg) by i.p. injection. […] Experiments 1 and 2 represent two independent experiments. Alanine aminotransferase (ALT) was measured 22 h after APAP injection (n=4 or n=5 mice for each group). The ALT levels and the respective percentage of ALT increase, relative to the increase observed in mice injected with APAP alone, are presented in Table 7.
# ALF was induced in C57Bl/6 male mice with a single dose of acetaminophen (300 mg/kg) by i.p. injection. […] Twenty-two hours after APAP injection, serum ALT was measured and centrilobular sections of mouse livers were cut and stained with hematoxylin and eosin.
# [2] = half-life for CO release in sheep blood using an oximeter; assay type: in vitro ADME; conditions: 632.1 μg/mL
# Description: The stability of compound 4b was determined by measuring the release of CO in vitro in 50 mM Hepes buffer (pH 7.4) using a RCP-equipped GC. Compound 4b concentration was 50 μM. […] The half-life for CO release was also measured in sheep blood using an oximeter. A concentration of 632.1 μg/mL of compound 4b was used.
# The half-life for CO release was also measured in sheep blood using an oximeter. […] Compound 5b released 0.12 molar equivalents of CO in 3 hours.
# [3] = system: lethal APAP liver failure model; experiment: lethal APAP liver failure model (500 mg/kg APAP i.p.), survival; conditions: 2×300 mg/kg, same schedules; data not shown
# [4] = system: murine partial hepatectomy model; conditions: from Yang et al., Crit. Care (2009); cited from earlier work
# [5] = NAC 2 × 300 mg/kg at 1 h and 3 h post APAP, serum 22 h
compound,measurement,setting,value
"O=C([O-])CC([N+]#[C][Mo-6]([C]#[O+])([C]#[O+])([C]#[O+])([C]#[N+]C(CC(=O)[O-])C(=O)[O-])[C]#[N+]C(CC(=O)[O-])C(=O)[O-])C(=O)[O-].[Li+].[Li+].[Li+].[Li+].[Li+].[Li+] (centres unmarked) [Compound 4b, tricarbonyl[tris(lithium 2-isocyanosuccinate)]Mo(0)]",ALT levels reduced relative to untreated control animals,[1]; 30 mg/kg i.p. at +3 h,75%
"O=C(O)C1([N+]#[C][Mo-6]([C]#[O+])([C]#[O+])([C]#[O+])([C]#[N+]C2(C(=O)O)CC2)[C]#[N+]C2(C(=O)O)CC2)CC1 [Compound 5b, tricarbonyl[tris(isocyanocyclopropylcarboxylic acid)]Mo(0)]",CO released in sheep blood in 3 hours,[2],0.12 molar equivalents of CO
same,ALT levels reduced relative to untreated control animals,[1]; 120 mg/kg i.p. at +3 h,70%
"CC(=O)N[C@@H](CS)C(=O)O [NAC, N-acetylcysteine, reference compound]",survival,[3],100%
same,Measured ALT values (mean ± S.D.) Experiment 1,[1]; [5],1745 ± 738 U/L
same,Measured ALT values (mean ± S.D.) Experiment 2,[1]; [5],6620 ± 2142 U/L
same,effect on serum ALT when given late after APAP injury (in words),"[1]; five hours and seven hours after APAP, NAC 150 mg/kg, Compound 3b 120 mg/kg",no longer effective and increases serum ALT levels (is toxic)
same,effect on liver regeneration (in words),[4],no effect and may be detrimental

# — patent US9163044B2, “Carbon monoxide releasing molecules and uses thereof” (Alfama, Inc., priority 2011, dated 2015)
